Data set [1] has as its system Boll Weevil (Anthonomus grandis). The experiment in a line: Activity against boll weevil, eggs in microtiterplates. The data set is classed as in vivo. To be noted: eggs sprayed with 20 μl test solution, 3 to 5 days. Here is the method:
10 to 15 eggs were placed into microtiterplates filled with 2% agar-agar in water and 300 ppm formaline. […] Mortality was assessed on the basis of the remaining unhatched eggs or larvae on the agar surface and/or quantity and depth of the digging channels caused by the hatched larvae. Tests were replicated 2 times.

In data set [2] the test system is Vetch Aphid (Megoura viciae). Briefly: Activity against vetch aphid, bean leaf disks. Type of data set: in vivo. To be noted: foliar, 144 h, 2500 ppm, leaf disks sprayed with 2.5 μl, 6 days, compared to 0% mortality of untreated controls, read-out: mortality. Here is the method: Bean leaf disks were placed into microtiterplates filled with 0.8% agar-agar and 2.5 ppm OPUS™. The leaf disks were sprayed with 2.5 μl of the test solution and 5 to 8 adult aphids were placed into the microtiterplates which were then closed and kept at 22-24° C. and 35-45% under fluorescent light for 6 days. Mortality was assessed on the basis of vital, reproduced aphids. Tests were replicated 2 times.

The subject of data set [3] is Cotton Aphid (Aphis gossypii). The experiment in a line: Activity against cotton aphid, cotton cotyledon dip. Type of data set: in vivo. To be noted: 120 h, cotyledons dipped, after 5 days. The text has this: (§1) The active compounds were formulated in 50:50 acetone:water and 100 ppm Kinetic™ surfactant.
Cotton plants at the cotyledon stage (one plant per pot) were infested by placing a heavily infested leaf from the main colony on top of each cotyledon. The aphids were allowed to transfer to the host plant overnight, and the leaf used to transfer the aphids was removed. The cotyledons were dipped in the test solution and allowed to dry. After 5 days, mortality counts were made.

Data set [4] concerns Southern Armyworm (Spodoptera eridania), 2nd Instar Larvae. Briefly: whole plant or invertebrate. The data set is classed as in vivo. To be noted: in Phaseolus lunatus, foliar, 120 h, 300 ppm, leaf dipped, at 5 days, read-out: mortality. Here is the method: The active compounds were formulated for testing the activity against insects and arachnids as a 10.000 ppm solution in a mixture of 35% acetone and water, which was diluted with water, if needed.
A Sieva lima bean leaf was dipped in the test solution and allowed to dry. The leaf was then placed in a petri dish containing a filter paper on the bottom and ten 2nd instar caterpillars. At 5 days, observations are made of mortality and reduced feeding.

The subject of data set [5] is Diamond Back Moth (Plutella xylostella). Briefly: Activity against diamond back moth, cabbage leaf disk dip. The data set is classed as in vivo. To be noted: foliar, 300 ppm, leaf disk dipped, third instar larvae, after 72 h, read-out: mortality. Here is the method:
The active compounds were formulated in 50:50 acetone:water and 0.1% (vol/vol) Alkamuls EL 620 surfactant. A 6 cm leaf disk of cabbage leaves was dipped in the test solution for 3 seconds and allowed to air dry in a Petri plate lined with moist filter paper. The leaf disk was inoculated with 10 third instar larvae and kept at 25-27° C. and 50-60% humidity for 3 days. Mortality was assessed after 72 h of treatment.

Data set [6] has as its system Yellowfever Mosquito (Aedes aegyptii) Larvae. The experiment in a line: Activity against mosquito larvae via water treatment. Type of data set: in vivo. To be noted: read-out: mortality of yellowfever mosquito. The method, then: 11. Activity Against Yellowfever Mosquito (Aedes aegyptii), House Mosquito (Culex quinquefasciatus) and Malaria Mosquito (Anopheles albimanus) Larvae Via Water Treatment
Well plates were used as test arenas. The active ingredient was dissolved in acetone and diluted with water to obtain the concentrations needed. The final solutions containing appr. 1% acetone were placed into each well. Approximately 10 mosquito larvae (4th-instars) in 1 ml water were added to each well. Larvae were fed one drop of liver powder each day. The dishes were covered and maintained at 22° C. Mortality was recorded daily and dead larvae and live or dead pupae were removed daily. At the end of the test remaining live larvae were recorded and percent mortality was calculated.

For data set [7], the system named is Tobacco Budworm (Heliothis virescens). The experiment in a line: whole plant or invertebrate. To be noted: 144 h.
The subject of data set [8] is Oat Aphid (Rhopalosiphum padi). Briefly: Activity against oat aphid, barley leaf disks. Type of data set: in vivo. To be noted: 2500 ppm; leaf disks sprayed with 2.5 μl; 5 days; compared to 0% mortality of untreated controls. Here is the method: Barlay leaf disk were placed into microtiterplates filled with 0.8% agar-agar and 2.5 ppm OPUS™. The leaf disks were sprayed with 2.5 μl of the test solution and 3 to 8 adult aphids were placed into the microtiterplates which were then closed and kept at 22-24° C. and 35-45% humidity under fluorescent light for 5 days. Mortality was assessed on the basis of vital aphids. Tests were replicated 2 times.

Data set [9] deals with Silverleaf Whitefly (Bemisia argentifolii). Briefly: Activity against silverleaf whitefly, cotton cotyledon dip. To be noted: 72 h, cotyledons dipped, adults, 3 days after treatment. Type of data set: in vivo. Here is the method: as §1
Selected cotton plants were grown to the cotyledon state (one plant per pot). The cotyledons were dipped into the test solution to provide complete coverage of the foliage and placed in a well-vented area to dry. Each pot with treated seedling was placed in a plastic cup and 10 to 12 whitefly adults (approximately 3-5 day old) were introduced. The insects were collected using an aspirator and an 0.6 cm, non-toxic Tygon™ tubing (R-3603) connected to a barrier pipette tip. The tip, containing the collected insects, was then gently inserted into the soil containing the treated plant, allowing insects to crawl out of the tip to reach the foliage for feeding. The cups were covered with a reusable screened lid (150 micron mesh polyester screen PeCap from Tetko Inc). Test plants were maintained in the holding room at about 25° C. and 20-40% relative humidity for 3 days avoiding direct exposure to the fluorescent light (24 hour photoperiod) to prevent trapping of heat inside the cup. Mortality was assessed 3 days after treatment of the plants.

Data set [10] relates to Yellowfever Mosquito (Aedes aegyptii). The experiment in a line: Activity via glass contact. The data set is classed as in vivo. The text has this: 10. Activity Against Argentine Ant (Linepithema humile), Harvester Ant (Pogonomyrmex Californicus), Acrobat Ant (Crematogaster Spp.), Carpenter Ant (Camponotus floridanus), Fire Ant (Solenopsis invicta), House Fly (Musca domestica), Stable Fly (Stomoxys calcitrans), Flesh Fly (Sarcophaga sp.), Yellowfever Mosquito (Aedes aegyptii), House Mosquito (Culex quinquefasciatus), Malaria Mosquito (Anopheles albimanus), German Cockroach (Blattella Germanica), Cat Flea (Ctenocephalides felis), and Brown Dog Tick (Rhipicephalus sanguineus) Via Glass Contact
Glass vials were treated with 0.5 ml of a solution of active ingredient in acetone and allowed to dry. Insects or ticks were placed into each vial together with some food and moisture supply.

Data set [11] has as its system Mediterranean Fruitfly (Ceratitis capitata). Briefly: Activity against Mediterranean fruitfly, eggs in microtiterplates. Type of data set: in vivo. To be noted: 144 h, eggs sprayed with 5 μl test solution, 6 days. The method, then:
50 to 80 eggs were placed into microtiterplates filled with 0.5% agar-agar and 14% diet in water. […] Mortality was assessed on the basis of the agility of the hatched larvae. Tests were replicated 2 times.

The mark [12] stands for this setting: 10 ppm, water treatment, 4th-instar larvae.

Each structure is given as a SMILES string. Read-outs that look alike come from different tables or passages of the source. Some results are limits rather than exact numbers.

By mortality is commonly meant the percentage killed. Broadly, the melting point is the temperature, or range, at which the solid turns liquid.

Consider `Cc1cccc(C(=O)N=S(C)C)c1NC(=O)c1cc(Br)nn1-c1ncccc1Cl` [I.3-7], for which the mortality at 2500 ppm in [1], in data set [2] and in data set [7] was above 75% each time. Moreover, the mortality at 300 ppm is above 50% in data set [3], above 75% in data set [4] and above 75% in data set [5]. For the same molecule, in [6] (setting [12]), the mortality at 10 ppm is above 70%.
As to `CCN(CC)S(=O)(=O)NC(=O)c1cc(Cl)cc(C)c1NC(=O)c1cc(C(F)(F)F)nn1-c1ncccc1Cl` [I.1-37], the mortality at 10 ppm in data set [6] is above 70%.
In turn, `CCN(CC)S(=O)(=O)NC(=O)c1cccc(C)c1NC(=O)c1cc(Br)nn1-c1ncccc1Cl` returned a melting point of 191 °C.
Regarding `Cc1cc(Cl)cc(C(=O)N=S(C(C)C)C(C)C)c1NC(=O)c1cc(C(F)(F)F)nn1-c1ncccc1Cl` [I.3-1], in data set [8], the mortality entry is “over 75%”.
With `Cc1cc(Cl)cc(C(=O)N=S(C)C)c1NC(=O)c1cc(Br)nn1-c1ncccc1Cl` [I.3-4], the mortality at 2500 ppm in data set [1], in data set [2] and in data set [7] was above 75% throughout. Besides, the mortality at 300 ppm in data set [3] is above 50%; in data set [4] it was above 75%; in [9], above 90%. Moreover, the mortality at 10 ppm in data set [10] and in data set [6] (setting [12]) was above 70% in each case.
For `CCS(C)=NC(=O)c1cc(C#N)cc(C)c1NC(=O)c1cc(C(F)(F)F)nn1-c1ncccc1Cl` (stereo not shown), the melting point worked out at 65 °C.
With `CCS(C)=NC(=O)c1cc(Cl)cc(C)c1NC(=O)c1cc(C(F)(F)F)nn1-c1ncccc1Cl` (stereo not shown) [I.3-28], the mortality at 2500 ppm in data set [1], in data set [11], in data set [2] and in [7] was above 75% in each case. In addition, the mortality at 300 ppm was above 50% in [3], above 75% in [4], above 90% in [9] and above 75% in data set [5].
For the molecule `Cc1cccc(C(=O)NS(=O)(=O)N(C)C)c1NC(=O)c1cc(C(F)(F)F)nn1-c1ncccc1Cl`, the melting point came to 183 °C.

The values are drawn from patent US20170015649A1, “N-Thio-anthranilamid compounds and their use as pesticides” (BASF SE, priority 2005, published 2017).
